In PMC12523838, “Inhibition of Xanthine Oxidase by Four Phenolic Acids: Kinetic, Spectroscopic, Molecular Simulation, and Cellular Insights” (Foods, 2025):
Values joined by “and” are separate entries in the source; they are usually repeats but may differ in a detail not shown here. Equal entries are not always repeated. “Also recorded” adds a separate entry of the source. Where two headings read alike, the source gives them in different places.

Assays:
XOD (xanthine oxidase) [1] = biological target: T1, XOD (xanthine oxidase) (Bos taurus, UniProt P80457); experiment: Kinetic mechanisms of XOD inhibition (Lineweaver-Burk); type: biochemical, bovine; conditions: for Inhibition types: Lineweaver-Burk plots; for Kis (inhibition constant for the XOD-substrate complex): mixed inhibition model; for Ki: read-out: Ki (inhibition constant for XOD)
Protocol: The inhibition kinetics of XOD by FA, CA, GA, and PA were evaluated using Lineweaver–Burk plots. The inhibitor concentrations were as follows: FA (0, 2.0, 3.0, and 4.0 mM), CA (0, 1.0, 2.0, and 4.0 mM), GA (0.2, 1.0, 2.0, and 4.0 mM), and PA (1.0, 2.0, 5.0, and 10.0 mM). The substrate (xanthine) concentrations were fixed at 0.1, 0.2, 0.3, and 0.4 mM. XOD (0.05 U/mL) was used, and the initial reaction velocity (v) was calculated based on UA formation.
Lineweaver–Burk plots were established by plotting 1/v against 1/[s] for each inhibitor concentration. Four linear regressions were obtained for each inhibitor, enabling the determination of the inhibition type. […] The slope and intercept of the Lineweaver–Burk plot were plotted against inhibitor concentration [I], yielding the following equations: (3) and (4).
V denotes the reaction rate, Vmax the maximum rate, Km the Michaelis constant, Ki the inhibition constant for XOD, and Kis the inhibition constant for the XOD–substrate complex. Decreased Ki or Kis values indicate stronger inhibitory activity.

BRL-3a cells = experiment: UA levels in xanthine-treated BRL-3A cells; type: cell-based; conditions: vs model group
Protocol: UA levels were measured following the method of Liu et al.. […] After 48 h of incubation, supernatants were collected, spun at 1000× g for 5 min, then the UA level was quantified with the UA assay kit.

[2] = DPPH radical scavenging activity
Protocol: The DPPH• scavenging capacity was evaluated following the method of Nakbi et al.. […] The mixture was vortexed and incubated at room temperature for 30 min. Absorbance was then measured at 517 nm and recorded as Ai. For the control experiment, 10 μL of anhydrous ethanol replaced the sample soluition, while all other steps were identical, and the absorbance was recorded as Ac. To correct for background, 10 μL of sample solution was mixed with 240 μL of anhydrous ethanol alone, and the absorbance at 517 nm was recorded as A0.

XOD (xanthine oxidase) [3] = biological target: T1, XOD (xanthine oxidase); experiment: XOD inhibitory activity in vitro (enzymatic reaction, HPLC of UA); type: biochemical, bovine
Protocol: The XOD inhibitory activity of the samples was assessed using an enzymatic reaction followed by HPLC analysis. Briefly, 50 μL of XOD (0.05 U/mL in 200 mM PBS, pH 7.5) was combined with either 50 μL of PBS (control) or 50 μL of the sample solution. The reaction mixture was equilibrated at 37 °C for 5 min, after which 150 μL of 0.40 mM xanthine was added. The reaction proceeded at 37 °C for 10 min and was terminated by adding 80 μL of 1.0 M HCl.
UA production was measured using an HPLC system (Agilent Technologies, Santa Clara, CA, USA) equipped with a UV detector. The reaction solution was diluted 20-fold and filtered, and 10 μL of the filtrate was injected into an Agilent Eclipse XDB-C18 column (150 × 4.6 mm, 5 μm). The mobile phase, consisting of 10% methanol and 90% 10 mM sodium phosphate buffer (pH 5.5), was delivered isocratically at 1.0 mL/min. UA was detected at 292 nm with the column maintained at 25 °C. Concentrations were calculated based on an external calibration curve. XOD inhibition was expressed as the percentage reduction of UA formation, and the IC50 value was defined as the sample concentration at which 50% inhibition was achieved.

[4] = ABTS radical scavenging activity
Protocol: The modified ABTS assay was carried out as described by Foss et al. with appropriate modifications. A 7 mM ABTS solution was mixed in equal volumes with 2.45 mM potassium persulfate and kept in the dark at room temperature for 12–16 h to generate the ABTS•^+ stock solution. […] Absorbance was recorded at 734 nm. PBS served as the blank, while Trolox was used as the standard. The results were reported as IC50 value, representing the concentration of sample required to scavenge 50% of ABTS•^+ radicals.

[5] = Reducing power (potassium ferricyanide, absorbance at 700 nm); conditions: concentration at which absorbance at 700 nm reached 0.5
Protocol: The mixture was incubated at 50 °C for 20 min, after which 0.5 mL of 10% (,w/v) trichloroacetic acid solution was added. Following centrifugation at 3000 rpm for 10 min, 0.5 mL of the supernatant was transferred to a new test tube, and 0.5 mL of distilled water along with 0.1 mL of 0.1% (,w/v) ferric chloride solution were added. After 10 min of incubation, absorbance was measured at 700 nm. Higher absorbance values correspond to stronger reducing activity. The IC50 value was defined as the concentration at which the absorbance reached 0.5.

XOD [6] = biological target: T2, XOD (Bos taurus, UniProt P80457); experiment: CD spectroscopy, secondary structure of XOD; parameters: species or system bovine; conditions: for α-helix content of XOD: XOD with phenolic acid (300 μM solution, equal volumes), XOD alone 36.70; for β-sheet content of XOD: XOD with phenolic acid, XOD alone 13.87
T2 construct: XOD (7.2 units/mL, derived from bovine milk); purchased Sigma-Aldrich (St. Louis, MO, USA); host or cells: bovine milk
Protocol: CD spectroscopy was employed to determine the conformational structure of XOD in the presence of phenolic compounds. Spectra were recorded in the wavelength range of 190–250 nm using a scanning rate of 100 nm/min, with continuous nitrogen purging at room temperature. XOD was prepared at 2.0 mg/mL in PBS (200 mM, pH 7.5) and then diluted 6-fold to 0.33 mg/mL. Phenolic compounds were dissolved in PBS at 300 μM, and equal volumes of XOD and phenolic solutions were joined in equal amounts. CD spectra of the mixtures were recorded with the PBS as the background, and secondary structure content of XOD was analyzed employing the SELCON3 algorithm on the DichroWeb server (http://dichroweb.cryst.bbk.ac.uk/html/home.shtml).
The CONTIN program was used to determine the secondary structure composition of XOD (Figure 3B).

XOD [7] = biological target: T2, XOD; experiment: Fluorescence quenching of XOD (Stern-Volmer); type: binding, bovine; conditions: for Kq (quenching rate constant) / n (number of binding sites): 298 K
Protocol: In brief, 100 µL of XOD (0.05 U/mL in 200 mM PBS, pH 7.5) was combined with 100 µL of each phenolic acid at final concentrations of 0, 50, 100, 200, 300, 400, and 500 μM. The mixtures were incubated at 25 °C for 10 min, and fluorescence emission spectra were recorded using a microplate reader (Thermo Fisher Scientific, Waltham, MA, USA) with an excitation wavelength of 280 nm and an emission collected from 310 to 500 nm. PBS was used as the blank, and background fluorescence was subtracted to ensure accuracy.
The binding mechanisms of FA, CA, GA, and PA to XOD were investigated using the fluorescence quenching method at seven different concentrations.
F0 and F denote the fluorescence intensities of XOD in the absence and presence of quenchers (FA, CA, GA, and PA), respectively. The quenching constant (Ksv) is, obtained from the linear fitting of F0/F against the quencher concentration [Q]. The quenching rate constant is expressed as Kq, while τ0 represents the average lifetime of the fluorophore in the absence of a quencher (typically 10^−9 s). The effective quenching constant of the accessible fluorophore is designated as Ka, and fa corresponds to the fraction of fluorescence accessible to quenching. The binding constant is indicated by K, and n stands for the number of binding sites.

[8] = Oxygen radical absorption capacity (ORAC)
Protocol: The ORAC analysis method was adapted from Wang et al.with adjustments. The trial was conducted in 75 mM PBS (pH 7.4). […] AAPH was freshly dissolved in PBS at 38.25 mM and maintained in an ice-water bath. […] The reaction was initiated by adding 100 μL of AAPH solution, and fluorescence intensity was recorded every minute for 100 min to generate a fluorescence decay curve (Thermo Fisher Scientific, Waltham, MA, USA). Trolox served as the reference standard, while PBS functioned as the blank. ORAC values were determined from the net area under the fluorescence decay curve and expressed as Trolox equivalents per sample [22].

[9] = XOD 0.05 U/mL, 0.40 mM xanthine, 37 °C, pH 7.5, read-out: IC50 of XOD inhibitory activity

T2 sequence (P80457 whole entry): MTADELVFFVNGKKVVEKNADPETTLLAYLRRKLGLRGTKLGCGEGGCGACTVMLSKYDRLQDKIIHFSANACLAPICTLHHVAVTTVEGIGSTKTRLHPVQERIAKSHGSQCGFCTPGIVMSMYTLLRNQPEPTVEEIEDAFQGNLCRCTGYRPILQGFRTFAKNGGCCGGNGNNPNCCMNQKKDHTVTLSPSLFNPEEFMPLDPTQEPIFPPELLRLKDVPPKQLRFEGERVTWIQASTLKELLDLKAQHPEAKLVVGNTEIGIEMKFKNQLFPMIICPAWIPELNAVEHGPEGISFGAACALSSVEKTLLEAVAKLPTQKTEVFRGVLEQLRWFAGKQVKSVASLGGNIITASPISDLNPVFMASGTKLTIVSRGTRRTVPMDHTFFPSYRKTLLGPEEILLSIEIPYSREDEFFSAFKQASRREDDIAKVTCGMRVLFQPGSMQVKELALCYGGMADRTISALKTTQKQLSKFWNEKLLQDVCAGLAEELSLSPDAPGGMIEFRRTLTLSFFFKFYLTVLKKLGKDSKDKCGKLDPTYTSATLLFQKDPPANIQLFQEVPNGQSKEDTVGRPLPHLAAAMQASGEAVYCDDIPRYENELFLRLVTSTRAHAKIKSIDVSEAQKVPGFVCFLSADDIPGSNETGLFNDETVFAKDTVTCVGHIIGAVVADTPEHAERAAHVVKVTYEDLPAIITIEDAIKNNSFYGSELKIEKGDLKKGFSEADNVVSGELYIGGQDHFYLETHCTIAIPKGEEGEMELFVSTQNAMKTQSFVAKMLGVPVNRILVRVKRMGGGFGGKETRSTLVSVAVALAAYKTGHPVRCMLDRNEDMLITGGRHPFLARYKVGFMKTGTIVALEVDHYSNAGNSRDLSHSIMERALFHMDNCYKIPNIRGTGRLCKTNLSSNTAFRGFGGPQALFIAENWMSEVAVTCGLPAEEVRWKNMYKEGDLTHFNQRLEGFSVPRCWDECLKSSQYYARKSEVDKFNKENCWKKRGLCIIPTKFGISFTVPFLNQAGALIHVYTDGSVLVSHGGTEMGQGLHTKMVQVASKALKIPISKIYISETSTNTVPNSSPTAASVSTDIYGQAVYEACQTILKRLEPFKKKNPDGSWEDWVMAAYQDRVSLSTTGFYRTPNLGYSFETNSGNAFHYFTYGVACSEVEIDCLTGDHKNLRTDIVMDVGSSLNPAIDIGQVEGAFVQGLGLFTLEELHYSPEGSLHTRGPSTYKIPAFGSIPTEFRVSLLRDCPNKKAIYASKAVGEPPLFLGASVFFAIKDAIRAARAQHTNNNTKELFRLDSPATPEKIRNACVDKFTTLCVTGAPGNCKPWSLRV
T1 sequence (P80457 whole entry): as above

Structure (SMILES)	Inhibition types (XOD (xanthine oxidase) [1])	Vmax (XOD (xanthine oxidase) [1]; inhibitor 1.0 mM)	Vmax (XOD (xanthine oxidase) [1]; inhibitor 2.0 mM)	Vmax (XOD (xanthine oxidase) [1]; inhibitor 4.0 mM)	Kis (inhibition constant for the XOD-substrate complex) (XOD (xanthine oxidase) [1])	Ki (XOD (xanthine oxidase) [1])	IC50 [2]	IC50 (XOD (xanthine oxidase) [3]; [9])	IC50 [4]	Reducing Power [5]	α-helix content of XOD (XOD [6])	β-sheet content of XOD (XOD [6])	Kd (XOD [7])	Kq (quenching rate constant) (XOD [7])	n (number of binding sites) (XOD [7])	ORAC Value ([8]; Trolox equivalents)	further results
O=C(O)/C=C/c1ccc(O)cc1 [p-Coumaric acid, p-coumaric acid]	Mixed inhibition	0.79 mM/min	0.74 mM/min	0.68 mM/min	6.04 mM	1420 µM	19400 ± 1240 µM	7610 ± 300 µM	230 ± 10 µM	6.98 ± 0.13 a mM	36.20%	14.70%	99.9 ± 4.49 µM	0.91 ± 0.01 1012 L*mol-1*s-1	1.01 ± 0.00	9.64 ± 0.27 b mmol TE/mmol	Inhibition types (XOD (xanthine oxidase) [1]; listed as CA): mixed inhibition with competitive dominance; UA levels (BRL-3a cells; 25–100 μM, 1 mM xanthine, 48 h, p < 0.05, listed as CA): significantly reduced uric acid (UA) concentration; also recorded: significantly reduced UA levels
O=C(O)c1ccc(O)c(O)c1 [Protocatechuic acid, protocatechuic acid]	Mixed inhibition	0.79 mM/min	0.72 mM/min	–	17.76 mM	3210 µM	620 µM	12700 ± 670 µM	400 ± 20 µM	0.12 ± 0.01 mM·days	35.77%	14.47%	719 µM	0.18 ± 0.01 1012 L*mol-1*s-1	0.98 ± 0.02	6.63 ± 0.09 d mmol TE/mmol	Inhibition types (XOD (xanthine oxidase) [1]; listed as PA): mixed inhibition with competitive dominance; Vmax (XOD (xanthine oxidase) [1]; inhibitor 5.0 mM): 0.69 mM/min; Vmax (XOD (xanthine oxidase) [1]; inhibitor 10.0 mM): 0.68 mM/min; UA levels (BRL-3a cells; 25–100 μM, 1 mM xanthine, 48 h, p < 0.05, listed as PA): significantly reduced uric acid (UA) concentration; also recorded: significantly reduced UA levels; Reducing Power ([5]; listed as PA): 0.12 ± 0.01 mM
Cc1c(C)c2c(c(C)c1O)CCC(C)(C(=O)O)O2 (stereo not drawn) [Trolox, 6-Hydroxy-2,5,7,8-tetramethylchromane-2-carboxylic acid, reference compound]	–	–	–	–	–	–	680 ± 10 µM	–	3410 ± 120 µM	2.62 ± 0.20 mM and 2.62 ± 0.20 b (Trolox) mM	–	–	–	–	–	–	–
Oc1ncnc2[nH]ncc12 [allopurinol, reference compound]	–	–	–	–	–	–	–	–	–	–	–	–	–	–	–	–	UA levels (BRL-3a cells; positive control, p < 0.05): significantly lower UA levels
O=C(O)c1cc(O)c(O)c(O)c1 [Gallic acid, gallic acid]	Mixed inhibition	4.83 mM/min	4.72 mM/min	3.61 mM/min	3.05 mM	–	180 ± 10 µM	–	20 µM	0.20 ± 0.01 mM·days	37.33%	13.30%	139 µM	0.26 ± 0.01 1012 L*mol-1*s-1	1.13 ± 0.00	20.12 ± 0.74 a mmol TE/mmol	Inhibition types (XOD (xanthine oxidase) [1]; listed as GA): mixed but predominantly non-competitive inhibition; Vmax (XOD (xanthine oxidase) [1]; inhibitor 0.2 mM): 4.90 mM/min; UA levels (BRL-3a cells; 25 μM, 1 mM xanthine, 48 h, listed as GA): significantly reduced UA levels; IC50 (XOD (xanthine oxidase) [3]): 870 ± 30 µM; inhibitory efficacy of GA relative to PA (XOD IC50) (XOD (xanthine oxidase) [3]; GA vs PA): approximately 14.62 fold; Reducing Power ([5]; listed as GA): 0.20 ± 0.01 mM; ORAC Value [8]: 20.12 ± 0.74 mM
COc1cc(/C=C/C(=O)O)ccc1O [Ferulic acid, ferulic acid]	Mixed inhibition	–	1.39 mM/min	0.95 mM/min	1.78 mM	890 µM	800 ± 30 µM	2040 ± 110 µM	300 µM	0.74 ± 0.05 c mM	36.37%	14.07%	7140 µM	0.16 ± 0.01 1012 L*mol-1*s-1	0.70 ± 0.01	7.99 ± 0.24 c mmol TE/mmol	Inhibition types (XOD (xanthine oxidase) [1]; listed as FA): mixed inhibition with competitive dominance; Vmax (XOD (xanthine oxidase) [1]; inhibitor 3.0 mM): 1.04 mM/min; UA levels (BRL-3a cells; 25–100 μM, 1 mM xanthine, 48 h, p < 0.05, listed as FA): significantly reduced uric acid (UA) concentration; also recorded: significantly reduced UA levels
